Measurements published in ChEMBL document CHEMBL5620359, “Discovery of 2,5-disubstituted furan derivatives featuring a benzamide motif for overcoming P-glycoprotein mediated multidrug resistance in MCF-7/ADR cell” (Eur J Med Chem, 2023).

Experiments:
Assay type in all cases: functional
[1] = test system: NCI/ADR-RES; assay: Cytotoxicity against human MCF7ADR cells assessed as cell survival rate at 5 uM incubated for 48 hrs by CCK8 assay relative to control
[2] = test system: MCF7; assay: Cytotoxicity against human MCF7 cells assessed as cell survival rate at 5 uM incubated for 48 hrs by CCK8 assay relative to control
[3] = test system: NCI/ADR-RES; assay: Reversal activity against doxorubicin-mediated resistance in human MCF7ADR cells assessed as reversal fold by measuring ratio of doxorubicin IC50 to doxorubicin IC50 in presence of test compound at 5 uM incubated for 48 hrs by CCK8 assay
[4] = test system: NCI/ADR-RES; assay: Reversal activity against doxorubicin-mediated resistance in human MCF7ADR cells assessed as reversal fold by measuring ratio of doxorubicin IC50 to doxorubicin IC50 in presence of test compound at 1 uM incubated for 48 hrs by CCK8 assay

| Structure (SMILES) | Activity [1] | Activity [2] | fold change (FC) [3] | fold change (FC) [4] |
| --- | --- | --- | --- | --- |
| COc1cc2c(cc1OC)CN(C(=O)c1ccc(-c3ccccc3NC(=O)c3ccccc3Cl)o1)CC2 | 96.3% | 66.5% | 29.2 |  |
| COc1cc2c(cc1OC)CN(C(=O)c1ccc(-c3cccc(NC(=O)c4cccs4)c3)o1)CC2 | 61.4% |  | 46.6 |  |
| COc1cc2c(cc1OC)CN(C(=O)c1ccc(-c3ccc(NC(=O)c4ccc(Br)cc4)cc3)o1)CC2 | 96.3% | 97.2% | 48.4 |  |
| COc1cc2c(cc1OC)CN(C(=O)c1ccc(-c3ccccc3NC(=O)c3ccccc3OC)o1)CC2 | 74.5% | 81.2% | 20.8 |  |
| COc1cc2c(cc1OC)CN(C(=O)c1ccc(-c3ccccc3NC(=O)c3ccc(Cl)cc3)o1)CC2 | 84.1% | 83% | 24 |  |
| COc1ccc(NC(=O)Nc2ccc(-c3ccc(C(=O)N4CCc5cc(OC)c(OC)cc5C4)o3)cc2)cc1 | 98.2% | 99.2% |  |  |
| COc1cc2c(cc1OC)CN(C(=O)c1ccc(-c3cccc(NC(=O)c4ccccc4OC)c3)o1)CC2 | 65% | 53.6% | 44.2 |  |
| COc1cc2c(cc1OC)CN(CCc1ccc(NC(=O)c3cc(OC)c(OC)cc3NC(=O)c3cnc4ccccc4c3)cc1)CC2 | 46.7% | 80.7% | 221.1 |  |
| COc1ccc(S(=O)(=O)N(c2ccc(-c3ccc(C(=O)N4CCc5cc(OC)c(OC)cc5C4)o3)cc2)S(=O)(=O)c2ccc(OC)cc2)cc1 | 94.6% | 92.6% | 21.9 |  |
| COc1cc2c(cc1OC)CN(C(=O)c1ccc(-c3ccc(NC(=O)c4c(F)c(F)c(F)c(F)c4F)cc3)o1)CC2 | 98.2% | 92.4% | 45.4 |  |
| COc1ccc(-c2ccc(C(=O)N3CCc4cc(OC)c(OC)cc4C3)o2)cc1 | 94.1% |  | 9.1 |  |
| COc1cc2c(cc1OC)CN(C(=O)c1ccc(-c3ccccc3NC(=O)c3ccc([N+](=O)[O-])cc3)o1)CC2 | 99.6% | 86.2% | 24.3 |  |
| COc1cc2c(cc1OC)CN(C(=O)c1ccc(-c3ccc(NC(=O)c4ccccc4Cl)cc3)o1)CC2 | 82.5% | 65.5% | 66.9 |  |
| COc1cc2c(cc1OC)CN(C(=O)c1ccc(-c3ccc(NC(=O)c4ccc(N(C)C)cc4)cc3)o1)CC2 | 71.8% | 98.6% | 40 |  |
| COc1ccc(C(=O)Nc2cccc(-c3ccc(C(=O)N4CCc5cc(OC)c(OC)cc5C4)o3)c2)c(OC)c1 | 64.9% | 84.7% | 17.5 |  |
| COc1ccc(CNc2ccc(-c3ccc(C(=O)N4CCc5cc(OC)c(OC)cc5C4)o3)cc2)cc1 | 98.2% | 99.7% | 5.2 |  |
| COc1ccc(CCN(C)CCCC(C#N)(c2ccc(OC)c(OC)c2)C(C)C)cc1OC (centres undefined) | 75% | 99.6% |  |  |
| COc1cc2c(cc1OC)CN(C(=O)c1ccc(-c3ccc(NC(=O)c4ccccc4OC)cc3)o1)CC2 | 98.6% | 99.7% | 24.2 |  |
| COc1cc(OC)cc(C(=O)Nc2cccc(-c3ccc(C(=O)N4CCc5cc(OC)c(OC)cc5C4)o3)c2)c1 | 73.9% | 63% | 30.1 |  |
| COc1cc2c(cc1OC)CN(C(=O)c1ccc(-c3ccc(NC(=O)c4ccc(-c5ccccc5)cc4)cc3)o1)CC2 | 95% | 98.7% | 17.1 |  |
| COc1ccc(C(=O)Nc2ccc(-c3ccc(C(=O)N4CCc5cc(OC)c(OC)cc5C4)o3)cc2)c(OC)c1 | 66.7% | 63.7% | 36.8 |  |
| COc1cc2c(cc1OC)CN(C(=O)c1ccc(-c3ccc(NC(=O)c4ccccc4)cc3)o1)CC2 | 73.5% |  | 221.1 | 5.3 |
| COc1cc2c(cc1OC)CN(C(=O)c1ccc(-c3ccccc3NC(=O)c3ccccc3)o1)CC2 | 70.9% |  | 7.5 |  |
| COc1cc2c(cc1OC)CN(C(=O)c1ccc(-c3ccc(NC(=O)c4cccc(Cl)c4)cc3)o1)CC2 | 83.3% | 74.8% | 267.6 |  |
| COc1cc2c(cc1OC)CN(C(=O)c1ccc(-c3cccc(NC(=O)c4ccccc4)c3)o1)CC2 | 76.1% |  | 45.8 |  |

| Structure (SMILES) | Activity [1] | Activity [2] | fold change (FC) [3] | fold change (FC) [4] |
| --- | --- | --- | --- | --- |
| COc1cc(OC)cc(C(=O)Nc2ccccc2-c2ccc(C(=O)N3CCc4cc(OC)c(OC)cc4C3)o2)c1 | 97.3% | 70.5% | 13.1 |  |
| COc1cc2c(cc1OC)CN(C(=O)c1ccc(-c3ccccc3NC(=O)c3cccc(Cl)c3)o1)CC2 | 80.4% | 53% | 45 |  |
| COc1cc2c(cc1OC)CN(C(=O)c1ccc(-c3ccc(NC(=O)c4ccc(C(C)(C)C)cc4)cc3)o1)CC2 | 61.1% | 44.9% | 164 |  |
| COc1cc2c(cc1OC)CN(C(=O)c1ccc(-c3ccc(NC(=O)c4ccc(OC(F)(F)F)cc4)cc3)o1)CC2 | 72.8% | 61.3% | 118.3 |  |
| COc1cc2c(cc1OC)CN(C(=O)c1ccc(-c3cccc(NC(=O)c4cccc(Cl)c4)c3)o1)CC2 | 97.5% | 85.3% | 41 |  |
| COc1cc2c(cc1OC)CN(C(=O)c1ccc(-c3ccc(NC(=O)c4ccc(F)cc4)cc3)o1)CC2 | 70.6% | 53.6% | 53.5 |  |
| COc1cc2c(cc1OC)CN(C(=O)c1ccc(-c3cccc(NC(=O)c4ccco4)c3)o1)CC2 | 75.9% |  | 30.4 | 5.2 |
| COc1cccc(C(=O)Nc2ccc(-c3ccc(C(=O)N4CCc5cc(OC)c(OC)cc5C4)o3)cc2)c1 | 77.1% | 81.2% | 97.8 |  |
| COc1cc2c(cc1OC)CN(C(=O)c1ccc(-c3ccc(NC(=O)c4ccccc4F)cc3)o1)CC2 | 99.2% | 77.1% | 11 |  |
| COc1cccc(C(=O)Nc2cccc(-c3ccc(C(=O)N4CCc5cc(OC)c(OC)cc5C4)o3)c2)c1 | 75% | 59.4% | 59.8 |  |
| COc1cc2c(cc1OC)CN(C(=O)c1ccc(-c3ccc(NC(=O)c4cccc([N+](=O)[O-])c4)cc3)o1)CC2 | 71% | 79.2% | 53.5 |  |
| COc1cc2c(cc1OC)CN(C(=O)c1ccc(-c3ccccc3NC(=O)c3cccc([N+](=O)[O-])c3)o1)CC2 | 66.2% | 67.5% | 6.1 |  |
| COc1cc2c(cc1OC)CN(C(=O)c1ccc(-c3cccc(NC(=O)c4ccc(Cl)cc4)c3)o1)CC2 | 85.5% | 88.1% | 18 |  |
| COc1cc2c(cc1OC)CN(C(=O)c1ccc(-c3cccc(NC(=O)c4ccc([N+](=O)[O-])cc4)c3)o1)CC2 | 99.7% | 99.8% | 32.6 |  |
| COc1cccc(C(=O)Nc2ccccc2-c2ccc(C(=O)N3CCc4cc(OC)c(OC)cc4C3)o2)c1 | 83% | 81.2% | 26.6 |  |
| COc1cc2c(cc1OC)CN(C(=O)c1ccc(-c3ccc(NC(=O)c4ccc(C#N)cc4)cc3)o1)CC2 | 56.7% | 85.6% | 41 |  |
| COc1cc2c(cc1OC)CN(C(=O)c1ccc(-c3cccc(NC(=O)c4ccccc4Cl)c3)o1)CC2 | 80.8% | 67.3% | 32.8 |  |
| COc1cc2c(cc1OC)CN(C(=O)c1ccc(-c3ccc(NC(=O)c4ccc(Cl)cc4)cc3)o1)CC2 | 79.8% | 50.1% | 124 |  |
| COc1cc2c(cc1OC)CN(C(=O)c1ccc(-c3ccc(NC(=O)c4cccc(F)c4)cc3)o1)CC2 | 78.2% | 75.1% | 19.6 |  |
| COc1cc2c(cc1OC)CN(C(=O)c1ccc(-c3cccc(NC(=O)c4cccc([N+](=O)[O-])c4)c3)o1)CC2 | 76.5% | 69.6% | 23 |  |
| COc1cc2c(cc1OC)CN(C(=O)c1ccc(-c3ccc(NC(=O)c4ccc([N+](=O)[O-])cc4)cc3)o1)CC2 | 82.2% | 68.9% | 50.9 |  |
| C/C=C/C[C@@H](C)[C@@H](O)[C@H]1C(=O)N[C@@H](CC)C(=O)N(C)CC(=O)N(C)[C@@H](CC(C)C)C(=O)N[C@@H](C(C)C)C(=O)N(C)[C@@H](CC(C)C)C(=O)N[C@@H](C)C(=O)N[C@H](C)C(=O)N(C)[C@@H](CC(C)C)C(=O)N(C)[C@@H](CC(C)C)C(=O)N(C)[C@@H](C(C)C)C(=O)N1C [CYCLOSPORINE] | 89.4% | 87.5% | 59.1 |  |
| COc1cc2c(cc1OC)CN(C(=O)c1ccc(-c3cccc(NC(=O)c4ccccc4[N+](=O)[O-])c3)o1)CC2 | 62.6% | 73.4% | 19.5 |  |
| COc1ccc(C(=O)Nc2cccc(-c3ccc(C(=O)N4CCc5cc(OC)c(OC)cc5C4)o3)c2)cc1 | 62.1% | 32.4% | 72.6 |  |
| COc1cc2c(cc1OC)CN(C(=O)c1ccc(-c3ccc(NC(=O)c4ccccc4[N+](=O)[O-])cc3)o1)CC2 | 99.5% | 97.8% | 18.6 |  |
